Laboratory results reported in paper PMC7076358, “Absorption and Intestinal Metabolic Profile of Oleocanthal in Rats” (Pharmaceutics, 2020).
Read-outs that look alike come from different tables or passages of the source. Values belong to the compound of their own block, whether it stands above or below them.

Assays:
[1] = parameters: method as in PMID 15760043, PMID 9068926; conditions: cited from earlier work
[2] = in situ single-pass intestinal perfusion with simultaneous luminal perfusate and mesenteric blood sampling; type: in vivo, Sprague–Dawley rats
Procedure: LEV was assayed at 3 mg/mL, according to its high dose strength, in 250 mL TM.
Single-pass intestinal perfusion was performed in anesthetized rats according to the method described by Brouwers et al. [15], with simultaneous sampling from the luminal perfusate and mesenteric blood.
Anaesthesia was induced by intraperitoneal injection of pentobarbital sodium (60 mg/kg BW). The rats were then placed on a homeothermic blanket to maintain the body temperature at 37 °C. First, under general anaesthesia, the left jugular vein was cannulated with a heparinised (50 IU/mL) 0.5 × 0.9 mm/20 G catheter (Cavafix® MT, Braun Medical S.A., Barcelona, Spain) for infusion of donor blood. Second, a midline abdominal incision was made to isolate approximately 10 cm of the ileum using the ileocecal junction as a point of reference. Two glass cannulas (o.d. 4 mm, i.d. 3 mm, Duran®, Vidrafoc, Barcelona, Spain) were inserted at the proximal and distal ends of the isolated segment. The segment was rinsed by injection TM to remove the content until the solution came out clear. Next, the inlet cannula was connected to polyethylene tubing (i.d. 3 mm), which aspirated the tested solution (OLC or LEV) using a peristaltic pump (Minipuls3, M312 model, Gilson, Le Bel, France). Finally, the mesenteric vein draining blood from the intestinal segment was cannulated by inserting approximately 1 cm of a catheter (BD Insyte-W 24GA 0.7 × 19 mm, Becton Dickinson, Sangüesa S.A., Cornellà de Llobregat, Spain). The cannula was secured with a knot and connected to a silicone tube (i.d. 0.64 mm; o.d. 1.19 mm, Freudenberg Medical Europe, VWR International Eurolab S.L., Llinars del Vallés, Spain) that allowed blood to flow into the heparinised tubes. Care was taken to handle the small intestine gently to maintain normal blood supply. […]
The experiments were carried out in a laboratory room with infrared light to avoid oxidation of OLC. […] At the end of the experiment, the animal was euthanised by injection of air into the jugular, and the length of the intestinal segment was measured. […]

[3] = source not stated; cited from earlier work
[4] = parameters: method as in PMID 11110859; conditions: rat intestine perfused, cited from earlier work
Caco-2 cell monolayers = system: Caco-2 cell monolayers; parameters: method as in PMID 10745093; conditions: differentiated Caco-2 cell monolayers; cited from earlier work

SMILES: C[C@H]1COc2c(N3CCN(C)CC3)c(F)cc3c(=O)c(C(=O)O)cn1c23 [LEV, levofloxacin]
oral bioavailability [1]: ~100%

Peff at 60 min ([2]; Sprague-Dawley, pH 7, rat ileum, disappearance from lumen, OLC 0.1 mg/mL, LEV 3 mg/mL, flow 1 mL/min, mean ± SD, n = 4, normalised to 10-cm segment, read-out: Peff (effective permeability coefficient)): 22.3 ± 31.6 ×10⁻⁶ cm/s
Papp at 60 min ([2]; Sprague-Dawley, rat, pH 7, rat ileum, appearance in mesenteric blood, OLC 0.1 mg/mL, LEV 3 mg/mL, mean ± SD, n = 4, normalised to 10-cm segment, read-out: Papp (apparent permeability coefficient)): 4.12 ± 2.33 ×10⁻⁶ cm/s
absorption ([2]; rat in situ intestinal perfusion, stated in conclusions): 16%
SMILES: C/C=C(/C=O)[C@@H](CC=O)CC(=O)OCCc1ccc(O)cc1 [OLC, oleocanthal]
logP [3]: 1.15

SMILES: C/C=C1/[C@H](O[C@@H]2O[C@H](CO)[C@@H](O)[C@H](O)[C@H]2O)OC=C(C(=O)OC)[C@H]1CC(=O)OCCc1ccc(O)c(O)c1 [oleuropein]
intestinal permeability coefficient ([4]; hypotonic conditions): 5.92 ×10⁻⁶ cm/s
intestinal permeability coefficient ([4]; iso-osmotic conditions): 1.47 ×10⁻⁶ cm/s

SMILES: OCCc1ccc(O)c(O)c1 [hydroxytyrosol]
permeability (Caco-2 cell monolayers): 12.4 ± 0.9 × 10^−6 cm/s
